Like-named read-outs stand apart in the source and are kept apart here.
Experiments:
[1] = tested on: Human T47D breast carcinoma cells; test: Ex vivo progestational test (T47D proliferation); type: cell-based; conditions: SC200, 3H-thymidine incorporation
Experimental: The progestational activity of the compounds was accessed by their ability to stimulate proliferation of human breast carcinoma cells. Proliferation was measured as the ability to stimulate ^3 H-thymidine incorporation into these cells in vitro. Human T47D breast carcinoma cells (American Type Tissue Collection #133-HTB) were maintained in media consisting or RPMI 1640 supplemented with 10% fetal bovine serum, 10 ug/ml insulin, 10 U/ml pennicillin, 100 ug/ml streptomycin, and 2 mM L-glutamine. Monolayer cell cultures were trypsinized and washed in assay media consisting of phenol red-free RPMI 1640 supplemented with 5% charcoal-stripped, fetal bovine serum, and the other ingredients listed above. Cells were then plated in a 96-well plate. After a 48-hour incubation period at 37° C., the conditioned media was removed and replaced with fresh media containing test compounds in DMSO (0.1% DMSO final concentration). The cell cultures were incubated for 18 to 20 hours at 37° C. ^3 H-thymidine was then added to each well and the cell cultures were incubated at 37° C. for an additional 4 hours. Labelling was stopped by addition of un labelled thymidine. The cultures were washed twice, trypsinized and then harvested onto a filter mat. Incorporated ^3 -H-thymidine was measured by liquid scintillation counting. Data was expressed as a percent stimulation above control level which was set at 100%. An SC200 value was calculated as the concentration of test material needed to stimulate ^3 H-thymidine incorporation 200% of control.
Aspects of the application of the procedure used are described in the following: C. Christensen, D. Gunter, D. Saunders and V. Malviya, Gynecol. Oncol., 28, 25 (1987); J. Puzas, R. Drivdahl, G. Howard and D. Baylink, Proc. Soc. Exp. Biol. Med., 166, 113 (1981); and I. Keydar, L. Chen, S. Karby, F. Weiss, J. Delarea, M. Raduy, S. Chaitcik and H. Brenner, Eur. J. Cancer, 15, 659 (1979)

rabbit endometrium [2] = test: In vivo progestational test (McGinty Test); set-up: species or system rabbit (immature New Zealand White female); key: Active in Clauberg Assay; Active in McGinty Assay; conditions: injection into uterine horn, 72 hours
Experimental: Progestational activity was measured in vivo by the ability to stimulate the rabbit endometrium after injection into the uterine horn.
Immature New Zealand White female rabbits were injected subcutaneously for 6 days with 5.0 μg of 17β-estradiol per day. On the 7th day the rabbits were anesthetized, the abdomen opened and a uterine horn exposed. Two ligatures were placed around a segment of the uterus 3-4 cm long, leaving the major blood vessels outside the ties.
The upper ligature was tied tightly, and the lower one was left loose. A needle attached to a syringe was injected in the uterus below the second ligature and up into the area between the two ligatures. As the test material was injected, the ligature was tightened and held tight so that the needle was withdrawn without the loss of fluid. The second ligature was secured and the abdomen closed.
The rabbits were sacrificed approximately 72 hours after the injection. The uteri were removed, fixed in 10% buffered formalin, sectioned at 6μ, and stained with hematoxylin and eosin. The evaluation for endometrial proliferation was made according to a McPhail Index. Each slide was graded for each rabbit on a 0 (no response)-4 (maximum response) scale.

[3] = biological target: T1, progestin receptor from rabbit uterus (Oryctolagus cuniculus, UniProt P06186); test: Progestin receptor binding (3H-R5020 displacement); conditions: rabbit uterine cytosol, 4° C., 18 h, read-out: IC50: Binding affinity for the progestin receptor from rabbit uterus
T1 construct: Cytosolic progestin receptor were obtained by mixing rabbit uterine tissue with a Tris buffer; from tissue; host or cells: rabbit uterus cytosol
T1 sequence (P06186 whole entry): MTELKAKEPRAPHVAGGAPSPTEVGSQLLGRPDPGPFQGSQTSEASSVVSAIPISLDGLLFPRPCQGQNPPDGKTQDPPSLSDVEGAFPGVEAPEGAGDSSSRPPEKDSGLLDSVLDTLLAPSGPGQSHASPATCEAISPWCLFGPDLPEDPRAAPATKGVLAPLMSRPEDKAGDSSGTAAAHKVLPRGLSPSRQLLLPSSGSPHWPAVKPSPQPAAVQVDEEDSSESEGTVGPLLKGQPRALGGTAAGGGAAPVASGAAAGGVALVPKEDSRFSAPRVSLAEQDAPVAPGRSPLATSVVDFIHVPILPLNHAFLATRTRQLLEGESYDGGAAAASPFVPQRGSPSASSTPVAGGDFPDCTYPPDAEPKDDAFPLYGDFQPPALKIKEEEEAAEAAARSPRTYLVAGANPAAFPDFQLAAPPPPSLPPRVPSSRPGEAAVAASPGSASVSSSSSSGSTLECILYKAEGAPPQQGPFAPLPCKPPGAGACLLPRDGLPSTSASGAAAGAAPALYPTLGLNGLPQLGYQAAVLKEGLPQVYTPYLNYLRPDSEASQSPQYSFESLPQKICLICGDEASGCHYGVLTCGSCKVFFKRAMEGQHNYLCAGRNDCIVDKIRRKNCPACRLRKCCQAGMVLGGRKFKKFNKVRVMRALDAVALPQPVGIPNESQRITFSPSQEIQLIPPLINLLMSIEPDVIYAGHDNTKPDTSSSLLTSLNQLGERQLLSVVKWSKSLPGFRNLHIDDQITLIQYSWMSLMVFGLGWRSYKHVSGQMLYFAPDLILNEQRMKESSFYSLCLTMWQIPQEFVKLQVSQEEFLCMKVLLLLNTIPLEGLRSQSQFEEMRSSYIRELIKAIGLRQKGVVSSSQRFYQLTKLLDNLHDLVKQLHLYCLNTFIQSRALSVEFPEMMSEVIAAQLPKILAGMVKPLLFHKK
Summary of the method: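 Displacement of the radioligand 3H-R5020 was measured in cytosol from homogenized rabbit uterus (pH 7.4 Tris/EDTA/DTT/molybdate buffer), with compounds at 5% final DMSO and about 18 h at 4 °C. Charcoal removed free ligand, scintillation counting quantified bound ligand, and IC50 was the concentration displacing half.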

rabbit endometrium [4] = test: In vivo progestational test (Clauberg Test); set-up: species or system rabbit (immature New Zealand White female); key: Active in Clauberg Assay; Active in McGinty Assay; conditions: oral or parenteral, daily for five days
Experimental: Progestational activity was also measured in vivo by the abiity to stimulate the rabbit endometrium after either oral or parenteral administration.
[…]. Starting on the 7th day, the rabbits were given the test material daily for five days. The rabbits were sacrificed approximately 24 hours after the last administration, and the uteri were excised, trimmed and weighed. Portions of both uterine horns were fixed in 10% neutral formalin, sectioned at 6μ and stained with hematoxylin and eosin. Progestational activity was assessed as described above for the McGinty Test.

[5] = tested on: mouse (MC3T3-E1) and human (TE-85) osteoblast-line cells; type: cell-based
Summary of the method: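 Proliferation was read as ^3H-thymidine (0.4 μCi) uptake during a 4 h pulse, which started 20 h after compound addition. Before dosing, cells sat 24 h in 0.1% FBS. Values are % times control (100%).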

mature female rabbits = test: Additional test to determine bone growth activity (bone density by dual X-ray densitometry); type: in vivo, rabbit; conditions: oral once daily, 12 weeks, vs vehicle treated control
Experimental: Test compounds were orally administered once daily to mature female rabbits for 12 weeks. Bone density was measured by dual X-ray densitometry and results were expressed as % base line bone mineral content.

| Structure (SMILES) | T47D: Concentration to elicit a 200% increase in T47D Human breast cell proliferation [1] | In-vivo: Active in McGinty Assay (rabbit endometrium [2]) | IC50 [3] [nM] | In-vivo: Active in Clauberg Assay (rabbit endometrium [4]) | Osteoblast Cell Proliferation, 3H-thymidine incorporation vs control (100%) ([5]; 10^-6) [%] | Osteoblast Cell Proliferation, 3H-thymidine incorporation vs control (100%) ([5]; 10^-7) [%] | Osteoblast Cell Proliferation, 3H-thymidine incorporation vs control (100%) ([5]; 10^-8) [%] | Osteoblast Cell Proliferation, 3H-thymidine incorporation vs control (100%) ([5]; 10^-9) [%] | Osteoblast Cell Proliferation, 3H-thymidine incorporation vs control (100%) ([5]; 10^-10) [%] | bone mineral content (mature female rabbits) |
| --- | --- | --- | --- | --- | --- | --- | --- | --- | --- | --- |
| O=S(=O)(c1ccc(I)cc1)N1CCCC(c2ccc(Cl)c(C(F)(F)F)c2)=N1 [Compound 1, 3-(4-Chloro-3-trifluoromethylphenyl)-1-(4-iodobenzenesulfonyl)-1,4,5,6-tetrahydropyridazine] | 46 | M | 1.33 | C | – | – | – | – | – | – |
| O=S(=O)(c1ccc(Cl)cc1)N1CCCC(c2ccc(Cl)c(Cl)c2)=N1 [Compound 12, 3-(3,4-dichlorophenyl)-1-(4-chlorobenzenesulphonyl)-1,4,5,6-tetrahydropyridazine] | 153 | M | 1 | C | 118 | 115 | 114 | 131 | 135 | – |
| O=S(=O)(c1cccc(C(F)(F)F)c1)N1CCCC(c2ccc(Cl)cc2)=N1 [Compound 35] | – | M | 3.01 | – | 82 | 101 | 123 | 150 | 154 | – |
| O=S(=O)(c1ccc(Br)cc1)N1CCCC(c2ccc(Cl)c(Cl)c2)=N1 [Compound 39, 3-(3,4-dichlorophenyl)-1-(4-bromobenzenesulphonyl)-1,4,5,6-tetrahydropyridazine] | 100 | M | 0.7 | C | 92 | 94 | 84 | 115 | 99 | – |
| O=S(=O)(c1ccc(I)cc1)N1CCCC(c2ccc(Cl)c(Cl)c2)=N1 [Compound 40, 3-(3,4-dichlorophenyl)-1-(4-iodobenzenesulphonyl)-1,4,5,6-tetrahydropyridazine] | 26 | M | 1.18 | C | 78 | 90 | 71 | 58 | 53 | – |
| Cc1ccc(S(=O)(=O)N2CCCC(c3ccc(Cl)c(Cl)c3)=N2)cc1 [Compound 41, 3-(3,4-dichlorophenyl)-1-(4-methylbenzenesulphonyl)-1,4,5,6-tetrahydropyridazine] | 4000 | M | 1.96 | – | 138 | 158 | 166 | 144 | 116 | – |
| O=S(=O)(c1ccc2ccccc2c1)N1CCCC(c2ccc(Cl)c(Cl)c2)=N1 [Compound 42, 3-(3,4-dichlorophenyl)-1-(2-naphthylenesulfonyl)-1,4,5,6-tetrahydropyridazine] | 321 | M | 0.97 | – | 135 | 144 | 155 | 146 | 166 | – |
| O=S(=O)(c1ccc(Cl)cc1)N1CCCC(c2ccc(Cl)c(C(F)(F)F)c2)=N1 [Compound 77] | 286 | M | 1.47 | C | – | – | – | – | – | – |
| O=S(=O)(c1ccc2c(c1)CCCC2)N1CCCC(c2ccc(Cl)c(C(F)(F)F)c2)=N1 [Compound 78] | 10000 | M | 2.44 | C | – | – | – | – | – | – |
| O=S(=O)(c1cc(Cl)cc(Cl)c1)N1CCCC(c2ccc(Cl)c(C(F)(F)F)c2)=N1 [Compound 80] | 85 | M | 0.79 | – | – | – | – | – | – | – |
| Cc1ccc(S(=O)(=O)N2CCCC(c3ccc(Cl)c(C(F)(F)F)c3)=N2)cc1 [Compound 82] | 608 | M | 2.95 | – | – | – | – | – | – | – |
| O=C(c1ccc(Cl)c(Cl)c1)N1CCCC(c2ccccc2)=N1 [Compound 185, 1-(3,4-dichlorobenzoyl)-3-phenyl-1,4,5,6-tetrahydropyridazine] | 10000 | – | 3560 | – | 98 | 136 | 147 | 131 | 128 | significant increase in bone mineral content |
| O=C(c1ccc(Cl)c(Cl)c1)N1CCCC(c2cccs2)=N1 [Compound 280, 3-(2-Thienyl)-1-(3,4-dichlorobenzoyl)-1,4,5,6-tetrahydropyridazine] | – | – | – | – | – | – | – | – | – | significant increase in bone mineral content |

— US5684151A, “1-arylsulphonyl, arylcarbonyl and 1-arylphosphonyl-3-phenyl-1,4,5,6-tetrahydropyridazines” (priority 1995, dated 1997)
